“Also recorded” adds a separate entry of the source.
What was measured:
[1] = system: hAoSMC, HUVEC, Detroit 551, 5637, HT1080 and MDA-MB-435S cells; experiment: Cell proliferation assay (methylene blue staining) of cultured, actively growing cells; type: cell-based, Human; details: all tested cells (hAoSMC, HUVEC, Detroit 551, 5637, HT1080, MDA-MB-435S); increasing concentrations, 72-96 hours after seeding
Source text: The present study sought to compare the effect of each of the trans-halofuginone enantiomers to the racemic mixture on proliferation of cultured, actively growing cells. Human aortic smooth muscle cells (hAoSMC) and Human Umbilical Vein Endothelial Cells (HUVEC) were purchased from Clonetics and grown in Clonetics suitable growth media. Human skin fibroblasts (Detroit 551) and human fibrosarcoma (HT1080) cell lines were purchased from the American Type Culture Collection (ATCC) and grown in MEM supplemented with 10% FCS, 1 mM Sodium pyruvate, 2 mM L-glutamine and 0.2% antibiotic solution (Biological industries, Beit-Haemek, Israel). The human bladder carcinoma (5637) and human breast carcinoma (MDA-MB-435S) cell lines were purchased from the ATCC and grown in DMEM supplemented with 10% FCS and 0.2% antibiotic solution (Biological industries, Beit-Haemek, Israel). Cells were grown in 37° C. and 5% CO2. Cells were seeded in 96-well plates. Twenty-four hours later, increasing concentrations of tested compounds were added to the wells. When the cultures reached sub confluence (72-96 hours after seeding) the cells were fixed with 2.5% glutaraldehyde, washed three times with distilled water, followed by one wash with 0.1 M Boric buffer (pH 8.5). […] The optical density at 620 nm was determined using a micro plate spectrophotometer.

[2] = system: collagen type I synthesis of skin fibroblasts (Detroit 551); experiment: Collagen type I synthesis of skin fibroblasts (CICP, Prolagen-C ELISA); type: cell-based, Human; details: for effect on collagen type I synthesis of skin fibroblasts: Detroit 551, 75 μM ascorbic acid, 48 h, increasing concentrations
Description: Skin fibroblasts (Detroit 551) were seeded in a 96-well plate (3000 cells/well). Twenty-four hours later the cells were incubated for additional 48 h with 75 μM ascorbic acid and increasing concentrations of the tested compounds (induction medium was exchanged after 24 h). Cell medium was collected and the Prolagen-C ELISA kit of “METRA” was used for detection of collagen type I C′ propeptide (CICP) concentration.

coccidiosis = details: versus racemic compound; cited from earlier work

Compound	effect on cell proliferation [1]	effect on collagen type I synthesis of skin fibroblasts ([2]; listed as D-enantiomer of halofuginone)	activity in suppressing collagen type I synthesis relative to the racemic mixture ([2]; Detroit 551, versus racemic mixture of halofuginone, listed as D-enantiomer of halofuginone)	coccidiostatic activity relative to the racemic compound (coccidiosis)	effect on collagen type I synthesis of skin fibroblasts [2]
O=C(CC1NCCCC1O)Cn1cnc2cc(Br)c(Cl)cc2c1=O (single isomer, unassigned; enantiomer 7) [D-enantiomer, 7-bromo-6-chloro-3-[3-(3-hydroxy-2-piperidinyl)-2-oxopropyl]-4(3H)-quinazolinone]	suppressed proliferation of all the tested cells in a dose dependent manner	suppressed collagen type I synthesis of skin fibroblasts in a dose dependent manner	about two	three	
O=C(CC1NCCCC1O)Cn1cnc2cc(Br)c(Cl)cc2c1=O (single isomer, unassigned; enantiomer 7) [L-enantiomer, 7-bromo-6-chloro-3-[3-(3-hydroxy-2-piperidinyl)-2-oxopropyl]-4(3H)-quinazolinone]	no effect; also recorded: virtually inactive				no effect; also recorded: virtually inactive

From US20110212165A1, “PHARMACEUTICAL COMPOSITIONS OF THE ISOLATED D-ENANTIOMER OF THE QUINAZOLINONE DERIVATIVE HALOFUGINONE” (priority 2005, published 2011)
